Source: the supplement of paper PMC12463676, “Small-molecule dissolution of stress granules by redox modulation benefits ALS models” (Nature Chemical Biology, 2025)

Assays:
[1] = compound: O=[As]([O-])(O)O.[K+] [potassium arsenate]; experiment: thermal stability z-score vs DMSO; higher = more thermally stabilized by treatment; details: HeLa; arsenate concentration 1 mM
Description: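 Cellular thermal proteome profiling in HeLa cells treated with 1 mM arsenate for 1 h (DMSO pretreatment), heated to ten temperatures (37-66.3 °C). Soluble protein was quantified by TMT mass spectrometry relative to DMSO controls; the thermal stability score was transformed to a z-score; mean of n = 3 experiments.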

[2] = compound: NC(=O)CCCCC1CCSS1 [lipoamide]; experiment: as above; details: HeLa, lipoamide concentration 100 µM
Description: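 Cellular thermal proteome profiling in HeLa cells. Cells were treated with 100 µM lipoamide for 1 h, with or without 1 mM arsenate for a further 1 h, then heated to ten temperatures (37-66.3 °C), and soluble protein was quantified by TMT mass spectrometry relative to 0.1% DMSO controls. The thermal stability score (sum of log2 fold changes minus the abundance score) was transformed to a z-score; mean of n = 3 experiments.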

[3] = arsenate co-treatment: 1 mM arsenate 1 h
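Also: each temperature applied for 3 min, abundance score taken as mean log2 fold change at the two lowest temperatures, z-score obtained by mean subtraction and division by SD.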

Sequence of UniProt Q86XZ4 (Q86XZ4 whole entry): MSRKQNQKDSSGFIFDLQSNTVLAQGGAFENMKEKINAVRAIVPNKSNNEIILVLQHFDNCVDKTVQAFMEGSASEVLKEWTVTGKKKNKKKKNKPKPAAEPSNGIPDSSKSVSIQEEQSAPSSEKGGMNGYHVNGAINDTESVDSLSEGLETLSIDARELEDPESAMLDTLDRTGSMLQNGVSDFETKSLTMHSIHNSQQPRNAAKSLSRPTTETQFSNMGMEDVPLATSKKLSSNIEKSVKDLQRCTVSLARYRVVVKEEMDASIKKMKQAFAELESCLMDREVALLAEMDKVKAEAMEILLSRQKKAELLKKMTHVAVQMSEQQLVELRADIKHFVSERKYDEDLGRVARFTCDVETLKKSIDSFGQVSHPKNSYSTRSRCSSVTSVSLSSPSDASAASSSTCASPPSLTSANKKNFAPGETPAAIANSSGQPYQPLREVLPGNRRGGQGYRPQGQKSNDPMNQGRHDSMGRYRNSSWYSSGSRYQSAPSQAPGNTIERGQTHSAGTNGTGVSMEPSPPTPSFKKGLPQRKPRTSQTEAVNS
Sequence of UniProt Q00796 (Q00796 whole entry): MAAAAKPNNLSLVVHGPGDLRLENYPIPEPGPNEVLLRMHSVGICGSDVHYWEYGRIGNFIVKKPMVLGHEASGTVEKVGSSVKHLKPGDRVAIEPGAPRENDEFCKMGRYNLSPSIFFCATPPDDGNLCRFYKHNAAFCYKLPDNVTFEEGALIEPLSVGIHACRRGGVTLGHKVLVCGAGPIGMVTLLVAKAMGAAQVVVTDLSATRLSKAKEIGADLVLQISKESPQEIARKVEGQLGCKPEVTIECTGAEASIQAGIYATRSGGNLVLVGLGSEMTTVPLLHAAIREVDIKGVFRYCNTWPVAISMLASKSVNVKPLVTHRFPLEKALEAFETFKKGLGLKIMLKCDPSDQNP
Sequence of UniProt Q9NZZ3 (Q9NZZ3 whole entry): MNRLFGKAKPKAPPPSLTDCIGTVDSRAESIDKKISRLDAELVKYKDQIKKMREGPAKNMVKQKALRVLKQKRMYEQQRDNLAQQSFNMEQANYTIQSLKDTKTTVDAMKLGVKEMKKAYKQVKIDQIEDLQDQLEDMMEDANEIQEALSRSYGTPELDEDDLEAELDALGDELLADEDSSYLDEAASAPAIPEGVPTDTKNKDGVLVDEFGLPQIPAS
Sequence of UniProt Q9H6W3 (Q9H6W3 whole entry): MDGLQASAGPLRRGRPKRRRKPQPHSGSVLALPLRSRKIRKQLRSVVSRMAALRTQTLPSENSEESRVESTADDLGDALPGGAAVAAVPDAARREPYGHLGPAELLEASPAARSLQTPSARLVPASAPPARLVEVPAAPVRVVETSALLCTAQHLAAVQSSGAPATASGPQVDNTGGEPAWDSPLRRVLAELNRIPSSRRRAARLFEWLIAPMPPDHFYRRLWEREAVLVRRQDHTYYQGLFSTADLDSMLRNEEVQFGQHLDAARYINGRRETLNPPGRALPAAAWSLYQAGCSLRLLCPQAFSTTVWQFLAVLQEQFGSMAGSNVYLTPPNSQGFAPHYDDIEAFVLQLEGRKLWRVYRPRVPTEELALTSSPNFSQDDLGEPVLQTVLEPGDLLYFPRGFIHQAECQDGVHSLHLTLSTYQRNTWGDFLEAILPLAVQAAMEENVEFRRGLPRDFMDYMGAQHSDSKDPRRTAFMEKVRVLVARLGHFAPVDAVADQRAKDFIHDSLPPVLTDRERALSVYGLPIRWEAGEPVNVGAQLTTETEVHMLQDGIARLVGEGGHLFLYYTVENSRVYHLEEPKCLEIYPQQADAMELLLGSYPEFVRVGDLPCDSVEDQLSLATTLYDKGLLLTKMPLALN
Sequence of UniProt Q8NG68 (Q8NG68 whole entry): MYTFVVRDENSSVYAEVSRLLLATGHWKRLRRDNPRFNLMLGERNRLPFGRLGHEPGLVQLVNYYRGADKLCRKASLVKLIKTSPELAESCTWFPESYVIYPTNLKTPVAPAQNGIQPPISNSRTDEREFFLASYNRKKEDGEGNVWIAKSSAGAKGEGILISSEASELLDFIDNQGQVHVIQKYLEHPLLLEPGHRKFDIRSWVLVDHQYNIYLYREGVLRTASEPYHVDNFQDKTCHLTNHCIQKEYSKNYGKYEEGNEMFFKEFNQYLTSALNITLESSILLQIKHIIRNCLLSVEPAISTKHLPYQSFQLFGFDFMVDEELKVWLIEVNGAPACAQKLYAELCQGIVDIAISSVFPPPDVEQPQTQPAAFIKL
Sequence of UniProt P51159 (P51159 whole entry): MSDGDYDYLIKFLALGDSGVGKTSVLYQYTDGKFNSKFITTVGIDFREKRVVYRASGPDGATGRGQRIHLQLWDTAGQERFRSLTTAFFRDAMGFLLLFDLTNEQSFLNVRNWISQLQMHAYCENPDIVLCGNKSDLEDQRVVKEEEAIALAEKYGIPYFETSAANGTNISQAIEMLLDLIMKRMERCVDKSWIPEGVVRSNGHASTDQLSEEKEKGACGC
Sequence of UniProt Q5JTD0 (Q5JTD0 whole entry): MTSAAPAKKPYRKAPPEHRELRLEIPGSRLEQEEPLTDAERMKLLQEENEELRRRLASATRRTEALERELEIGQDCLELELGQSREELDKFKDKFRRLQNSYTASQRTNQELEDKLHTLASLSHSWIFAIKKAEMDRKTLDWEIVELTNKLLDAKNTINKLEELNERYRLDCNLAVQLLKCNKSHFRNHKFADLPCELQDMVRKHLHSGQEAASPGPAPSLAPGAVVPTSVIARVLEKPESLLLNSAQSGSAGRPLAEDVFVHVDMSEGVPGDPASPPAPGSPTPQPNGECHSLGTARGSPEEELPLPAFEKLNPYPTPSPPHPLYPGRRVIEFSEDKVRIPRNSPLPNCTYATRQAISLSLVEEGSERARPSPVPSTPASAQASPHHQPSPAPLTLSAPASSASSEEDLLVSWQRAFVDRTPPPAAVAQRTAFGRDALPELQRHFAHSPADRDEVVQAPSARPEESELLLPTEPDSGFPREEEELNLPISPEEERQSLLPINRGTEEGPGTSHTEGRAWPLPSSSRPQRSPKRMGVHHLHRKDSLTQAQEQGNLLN
Sequence of UniProt Q9NXW2 (Q9NXW2 whole entry): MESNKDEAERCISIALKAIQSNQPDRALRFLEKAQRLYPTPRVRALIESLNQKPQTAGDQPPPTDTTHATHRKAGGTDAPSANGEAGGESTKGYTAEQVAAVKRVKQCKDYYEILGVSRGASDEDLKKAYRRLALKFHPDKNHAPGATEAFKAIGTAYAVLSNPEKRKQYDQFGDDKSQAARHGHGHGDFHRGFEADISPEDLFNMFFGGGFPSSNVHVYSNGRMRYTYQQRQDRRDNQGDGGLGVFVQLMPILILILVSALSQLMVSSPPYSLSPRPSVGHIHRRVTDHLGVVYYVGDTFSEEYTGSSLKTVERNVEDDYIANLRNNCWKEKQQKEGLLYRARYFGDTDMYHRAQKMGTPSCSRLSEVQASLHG
Sequence of UniProt Q495W5 (Q495W5 whole entry): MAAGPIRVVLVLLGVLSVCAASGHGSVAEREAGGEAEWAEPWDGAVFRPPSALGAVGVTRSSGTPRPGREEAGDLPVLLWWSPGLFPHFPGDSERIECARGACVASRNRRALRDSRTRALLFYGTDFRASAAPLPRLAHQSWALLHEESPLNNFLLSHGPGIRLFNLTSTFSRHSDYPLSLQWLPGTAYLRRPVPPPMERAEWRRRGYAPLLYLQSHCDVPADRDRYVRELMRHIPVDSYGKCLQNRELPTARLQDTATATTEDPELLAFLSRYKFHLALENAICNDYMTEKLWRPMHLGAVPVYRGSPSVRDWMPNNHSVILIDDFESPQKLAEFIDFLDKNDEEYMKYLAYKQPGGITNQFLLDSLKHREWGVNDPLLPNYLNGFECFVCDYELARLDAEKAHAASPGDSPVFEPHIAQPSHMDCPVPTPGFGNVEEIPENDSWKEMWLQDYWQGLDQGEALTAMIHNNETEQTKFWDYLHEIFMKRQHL
Sequence of UniProt Q8WZA9 (Q8WZA9 whole entry): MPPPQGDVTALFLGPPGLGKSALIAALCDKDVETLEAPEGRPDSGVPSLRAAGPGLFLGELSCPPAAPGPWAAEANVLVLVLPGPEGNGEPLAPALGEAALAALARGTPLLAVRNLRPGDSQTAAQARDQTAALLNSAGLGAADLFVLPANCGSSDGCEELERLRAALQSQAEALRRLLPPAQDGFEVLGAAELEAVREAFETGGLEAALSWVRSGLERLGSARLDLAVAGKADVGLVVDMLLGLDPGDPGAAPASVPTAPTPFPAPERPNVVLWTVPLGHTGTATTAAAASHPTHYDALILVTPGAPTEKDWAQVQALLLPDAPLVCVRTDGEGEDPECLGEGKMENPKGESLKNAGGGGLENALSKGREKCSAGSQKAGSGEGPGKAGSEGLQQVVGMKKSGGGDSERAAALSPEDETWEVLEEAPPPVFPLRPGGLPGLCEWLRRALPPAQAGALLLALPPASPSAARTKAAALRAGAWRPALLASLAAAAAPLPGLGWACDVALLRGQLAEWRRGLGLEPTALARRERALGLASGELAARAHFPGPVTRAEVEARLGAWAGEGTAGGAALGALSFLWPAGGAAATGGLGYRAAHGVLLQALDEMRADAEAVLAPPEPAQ
Sequence of UniProt O00165 (O00165 whole entry): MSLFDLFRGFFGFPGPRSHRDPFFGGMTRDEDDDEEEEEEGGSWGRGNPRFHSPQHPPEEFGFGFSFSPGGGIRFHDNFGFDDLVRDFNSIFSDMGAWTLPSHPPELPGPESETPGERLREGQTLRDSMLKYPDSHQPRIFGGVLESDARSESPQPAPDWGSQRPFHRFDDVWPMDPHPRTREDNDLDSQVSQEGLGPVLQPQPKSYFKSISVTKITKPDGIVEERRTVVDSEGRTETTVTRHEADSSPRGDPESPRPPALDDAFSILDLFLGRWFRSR
Sequence of UniProt Q96NT0 (Q96NT0 whole entry): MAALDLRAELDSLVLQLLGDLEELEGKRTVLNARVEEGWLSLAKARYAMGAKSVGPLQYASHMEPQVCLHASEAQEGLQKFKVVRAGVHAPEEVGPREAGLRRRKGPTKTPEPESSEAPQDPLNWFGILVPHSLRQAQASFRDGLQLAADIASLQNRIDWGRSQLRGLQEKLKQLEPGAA

| Target | thermal stability z-score [1] | thermal stability z-score [2, 3] | thermal stability z-score ([2]; arsenate co-treatment: none) |
| --- | --- | --- | --- |
| PRKRA (UniProt O75569) | -0.312 | -0.115 | -0.0608 |
| EI24 (UniProt O14681) | -0.123 | 0.221 | -0.249 |
| NCOR2 (UniProt Q9Y618) | 0.138 | 0.182 | 0.227 |
| SPATS2 (UniProt Q86XZ4) | -0.00843 | -0.0725 | 0.644 |
| TRAM1 (UniProt Q15629) | 0.968 | -0.499 | -1.11 |
| MUT (UniProt P22033) | -1.02 | -0.252 | -0.48 |
| TGFB1 (UniProt P01137) | -0.306 | -2.9 | -3.34 |
| CYB5R4 (UniProt Q7L1T6) | -0.243 | 0.477 | 0.1 |
| MRPS9 (UniProt P82933) | 0.195 | 0.316 | 0.203 |
| UBE2M (UniProt P61081) | -0.416 | 0.533 | 0.463 |
| NCOA4 (UniProt Q13772) | -0.116 | -0.252 | 0.00243 |
| PAXBP1 (UniProt Q9Y5B6) | 0.0461 | 0.125 | 0.182 |
| RPL8 (UniProt P62917) | -1.07 | 0.0892 | -0.22 |
| SPECC1L (UniProt Q69YQ0) | 1.47 | 1.12 | 1.43 |
| PLEKHA2 (UniProt Q9HB19) | -0.321 | -0.216 | -0.168 |
| SORD (UniProt Q00796) | -0.608 | 0.301 | -0.192 |
| TTPAL (UniProt Q9BTX7) | 0.594 | 0.0476 | 0.0717 |
| TMEM181 (UniProt Q9P2C4) | 0.205 | 0.128 | 0.201 |
| USP48 (UniProt Q86UV5) | -0.669 | -0.179 | -0.137 |
| EVI5 (UniProt O60447) | 0.704 | -0.272 | 0.322 |
| RPL30 (UniProt P62888) | -0.666 | 0.771 | 0.183 |
| ENPEP (UniProt Q07075) | -0.0304 | 0.281 | 0.407 |
| TTL (UniProt Q8NG68) | -0.126 | -0.0821 | 0.166 |
| YY1 (UniProt P25490) | 0.338 | 0.0187 | -0.101 |

| Target | thermal stability z-score [1] | thermal stability z-score [2, 3] | thermal stability z-score ([2]; arsenate co-treatment: none) |
| --- | --- | --- | --- |
| NDUFA4 (UniProt O00483) | 0.532 | 0.551 | 0.887 |
| TST (UniProt Q16762) | 1 | 0.729 | -0.00911 |
| UBR2 (UniProt Q8IWV8) | 0.444 | 0.13 | 0.182 |
| NO66 (UniProt Q9H6W3) | 0.842 | 0.635 | 0.483 |
| CCDC115 (UniProt Q96NT0) | -0.392 | 0.112 | 0.611 |
| TLN2 (UniProt Q9Y4G6) | -0.69 | -1.57 | -0.868 |
| RAB27A (UniProt P51159) | 0.579 | 0.277 | -0.14 |
| NOL11 (UniProt Q9H8H0) | -0.0716 | 0.118 | 0.00868 |
| BIN3 (UniProt Q9NQY0) | -0.201 | -0.115 | -0.19 |
| PHLDA2 (UniProt Q53GA4) | 1.41 | -0.116 | 0.13 |
| OS9 (UniProt Q13438) | 0.706 | -3.59 | -3.15 |
| CISD1 (UniProt Q9NZ45) | -0.578 | 0.257 | 0.707 |
| HSD17B11 (UniProt Q8NBQ5) | 0.265 | 0.563 | 0.342 |
| PUS7L (UniProt Q9H0K6) | -0.0157 | 0.3 | 0.174 |
| HECTD4 (UniProt Q9Y4D8) | 0.284 | -0.345 | 0.341 |
| ACADS (UniProt P16219) | -2.93 | 0.116 | -1.16 |
| ZNF143 (UniProt P52747) | 0.0928 | -0.135 | -0.0231 |
| RHOB (UniProt P62745) | -0.245 | 0.0865 | 0.065 |
| C1ORF198 (UniProt Q9H425) | 0.635 | -0.254 | 0.135 |
| NAA38 (UniProt Q9BRA0) | -0.643 | 0.599 | 0.425 |
| FUT11 (UniProt Q495W5) | 0.00651 | -1.71 | -0.756 |
| SCNM1 (UniProt Q9BWG6) | 0.418 | -0.00102 | 0.278 |
| PURB (UniProt Q96QR8) | 0.364 | 0.083 | 0.15 |
| IRGQ (UniProt Q8WZA9) | -0.24 | -0.249 | -0.257 |

| Target | thermal stability z-score [1] | thermal stability z-score [2, 3] | thermal stability z-score ([2]; arsenate co-treatment: none) |
| --- | --- | --- | --- |
| GXYLT1 (UniProt Q4G148) | 0.387 | -0.938 | -0.906 |
| NFKB1 (UniProt P19838) | -0.274 | 0.0975 | 0.14 |
| CDC42 (UniProt P60953) | 0.0976 | 0.932 | 0.454 |
| HAX1 (UniProt O00165) | -0.11 | -1 | -0.895 |
| NEFH (UniProt P12036) | 0.4 | -0.156 | -0.292 |
| TJAP1 (UniProt Q5JTD0) | -0.0307 | -1.54 | -0.576 |
| SYNJ2 (UniProt O15056) | -0.0134 | 0.0806 | 0.0587 |
| EIF5B (UniProt O60841) | 1.42 | -0.519 | -0.31 |
| SMC1A (UniProt Q14683) | -0.186 | 0.323 | 0.28 |
| WDR89 (UniProt Q96FK6) | -12.3 | 2.45 | 1.2 |
| ESPL1 (UniProt Q14674) | 1.94 | 0.424 | -0.509 |
| SSNA1 (UniProt O43805) | 1.34 | 1.6 | 1.39 |
| CPSF7 (UniProt Q8N684) | -0.36 | 0.18 | 0.191 |
| ANAPC5 (UniProt Q9UJX4) | -0.0639 | 0.0562 | -0.0827 |
| DNAJB12 (UniProt Q9NXW2) | 0.182 | -0.267 | -0.124 |
| CHMP5 (UniProt Q9NZZ3) | -0.246 | 0.869 | 0.597 |
| RPL27 (UniProt P61353) | -0.612 | 0.459 | 0.431 |
| HLA | -0.138 | -0.65 | -0.217 |
| PLCB3 (UniProt Q01970) | -0.557 | -0.0239 | -0.358 |
| ATXN10 (UniProt Q9UBB4) | -1.03 | 0.258 | 0.374 |
| RPL22L1 (UniProt Q6P5R6) | -0.919 | -0.147 | -0.537 |
| PTBP1 (UniProt P26599) | 0.184 | 1.1 | 1.82 |
| VRK2 (UniProt Q86Y07) | -0.6 | -0.383 | -0.335 |
| ACAA2 (UniProt P42765) | -0.24 | 0.0666 | 0.0527 |
